ChEMBL document CHEMBL4130350, “Discovery, mechanism and metabolism studies of 2,3-difluorophenyl-linker-containing PARP1 inhibitors with enhanced in vivo efficacy for cancer therapy” (Eur J Med Chem, 2017)

Key:
[1] = Drug level in mouse liver microsomes treated with 2-(4-(2,3-Difluoro-5-((4-oxo-3,4-dihydrophthalazin-1-yl)methyl)benzoyl)pipe-razin-1-yl)nicotinonitrile at 2 uM up to 60 mins by LC-MS/MS analysis; assay type: ADME, microsome; details: 1 h
[2] = Retention time in mouse liver microsomes at 2 uM up to 60 mins in presence of NADPH by LC-MS/MS analysis; assay type: ADME, microsome; details: 1 h
[3] = biological target: Poly [ADP-ribose] polymerase 1 (Homo sapiens, UniProt P09874); experiment: Inhibition of PARP1 (unknown origin) by ELISA
MDA-MB-436 = experiment: Antiproliferative activity against human MDA-MB-436 cells after 7 days by CCK8 or SRB assay; assay type: functional, cell-based; details: MDA-MB-436, 168 h
[4] = Cytotoxicity against BRCA2 deficient Chinese hamster VC8 cells after 3 days by CCK8 or SRB assay; assay type: functional, cell-based; details: Cricetulus griseus, V-C8, 72 h
V79 = experiment: Cytotoxicity against BRCA2 expressing Chinese hamster V79 cells after 3 days by CCK8 or SRB assay; assay type: cell-based; details: Cricetulus griseus, V79, 72 h
[5] = Solubility of the compound in water after 24 hrs by HPLC analysis; assay type: physicochemical

Chain of Poly [ADP-ribose] polymerase 1 (P09874 whole entry): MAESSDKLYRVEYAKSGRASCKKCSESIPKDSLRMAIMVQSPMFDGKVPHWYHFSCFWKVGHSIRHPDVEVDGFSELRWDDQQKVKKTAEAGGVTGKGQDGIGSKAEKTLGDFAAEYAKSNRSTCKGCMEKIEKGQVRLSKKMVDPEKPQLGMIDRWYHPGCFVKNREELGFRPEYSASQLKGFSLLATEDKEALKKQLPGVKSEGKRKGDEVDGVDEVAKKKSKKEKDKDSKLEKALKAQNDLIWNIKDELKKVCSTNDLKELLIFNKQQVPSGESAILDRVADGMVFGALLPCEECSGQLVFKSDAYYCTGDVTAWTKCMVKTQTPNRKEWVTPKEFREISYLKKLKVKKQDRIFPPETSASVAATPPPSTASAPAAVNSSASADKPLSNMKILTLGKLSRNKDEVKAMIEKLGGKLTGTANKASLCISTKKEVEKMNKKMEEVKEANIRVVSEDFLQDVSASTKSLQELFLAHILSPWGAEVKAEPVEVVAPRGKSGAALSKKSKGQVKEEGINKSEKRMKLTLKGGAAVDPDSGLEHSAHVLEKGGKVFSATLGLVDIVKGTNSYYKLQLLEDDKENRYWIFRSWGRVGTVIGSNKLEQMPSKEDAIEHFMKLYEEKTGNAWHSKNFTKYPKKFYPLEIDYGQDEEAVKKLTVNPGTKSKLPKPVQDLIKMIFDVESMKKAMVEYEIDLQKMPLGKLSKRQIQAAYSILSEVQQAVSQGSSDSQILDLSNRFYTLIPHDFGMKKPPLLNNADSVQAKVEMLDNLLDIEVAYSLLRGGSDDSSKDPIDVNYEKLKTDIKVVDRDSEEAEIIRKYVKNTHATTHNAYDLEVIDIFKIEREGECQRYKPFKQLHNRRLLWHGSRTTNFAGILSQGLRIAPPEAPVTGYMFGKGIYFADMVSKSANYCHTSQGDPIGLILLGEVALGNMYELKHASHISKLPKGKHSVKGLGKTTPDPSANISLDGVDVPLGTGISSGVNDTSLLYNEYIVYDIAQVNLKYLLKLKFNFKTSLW

Row | Compound | IC50 [3] [nM] | IC50 (MDA-MB-436) [nM] | IC50 [4] [nM] | IC50 (V79) [nM] | also measured
1 | N#Cc1cccnc1NCCN(CC(=O)O)C(=O)c1cc(Cc2n[nH]c(=O)c3ccccc23)cc(F)c1F |  |  |  |  | Drug uptake [1]: Active; Retention_time [2]: 6.7 min
2 | O=C(c1cc(Cc2n[nH]c(=O)c3ccccc23)cc(F)c1F)N1CCN(Cc2ccccc2)CC1 | 96.8 |  |  |  | 
3 | O=C(c1cc(Cc2n[nH]c(=O)c3ccccc23)cc(F)c1F)N1CCN(C(=O)N2CCOCC2)CC1 | 2.3 | 25.7 | 938 | > 10000 | 
4 | O=C(c1cc(Cc2n[nH]c(=O)c3ccccc23)cc(F)c1F)N1CCN(c2ccc(Br)cc2)CC1 | 83.4 |  |  |  | 
5 | O=C(c1cc(Cc2n[nH]c(=O)c3ccccc23)cc(F)c1F)N1CCN(c2ccc(F)cc2)CC1 | 0.4 | 10.8 | 90.1 | 2850 | 
6 | O=C(c1cc(Cc2n[nH]c(=O)c3ccccc23)cc(F)c1F)N1CCN(c2ncc(Br)cn2)CC1 | 175 |  |  |  | 
7 | O=C(c1cc(Cc2n[nH]c(=O)c3ccccc23)cc(F)c1F)N1CCN(c2nccc(Br)n2)CC1 | 110 |  |  |  | 
8 | O=C(c1cc(Cc2n[nH]c(=O)c3ccccc23)cc(F)c1F)N1CCN(c2ncccn2)CC1 | 2.9 |  |  |  | 
9 | O=C(c1cc(Cc2n[nH]c(=O)c3ccccc23)cc(F)c1F)N1CCN(C2CCCCC2)CC1 | 3.5 |  |  |  | 
10 | COc1ccccc1N1CCN(C(=O)c2cc(Cc3n[nH]c(=O)c4ccccc34)cc(F)c2F)CC1 | 297 |  |  |  | 
11 | COc1ccc(N2CCN(C(=O)c3cc(Cc4n[nH]c(=O)c5ccccc45)cc(F)c3F)CC2)cc1 | 112 |  |  |  | 
12 | O=C(c1ccccc1)N1CCN(C(=O)c2cc(Cc3n[nH]c(=O)c4ccccc34)cc(F)c2F)CC1 | 6.1 |  |  |  | 
13 | O=C(c1cc(Cc2n[nH]c(=O)c3ccccc23)cc(F)c1F)N1CCN(c2nccs2)CC1 | 0.2 | 6.3 | 137 | > 10000 | 
14 | O=C(c1cc(Cc2n[nH]c(=O)c3ccccc23)cc(F)c1F)N1CCN(c2ccccn2)CC1 | 0.1 | < 0.03 | < 3.2 | 924 | 
15 | N#Cc1ccccc1N1CCN(C(=O)c2cc(Cc3n[nH]c(=O)c4ccccc34)cc(F)c2F)CC1 | 0.02 | < 0.05 | 8.8 | 4340 | solubility at 24 h [5]: < 0.2 µg/mL
16 | CCCCN1CCN(C(=O)c2cc(Cc3n[nH]c(=O)c4ccccc34)cc(F)c2F)CC1 | 2.1 | < 0.03 | 149 | 771 | 
17 | O=C(c1cc(Cc2n[nH]c(=O)c3ccccc23)cc(F)c1F)N1CCN(c2ccc(Cl)cc2)CC1 | 103 |  |  |  | 
18 | N#Cc1cccnc1NCCN(CCO)C(=O)c1cc(Cc2n[nH]c(=O)c3ccccc23)cc(F)c1F |  |  |  |  | Drug uptake [1]: Active; Retention_time [2]: 6.2 min
19 | O=C(c1cc(Cc2n[nH]c(=O)c3ccccc23)cc(F)c1F)N1CCN(c2ncc(C(F)(F)F)cn2)CC1 | 70.5 |  |  |  | 
20 | O=C(c1cc(Cc2n[nH]c(=O)c3ccccc23)cc(F)c1F)N1CCN(c2ccncc2)CC1 | 0.9 | 3.7 | 3290 | > 10000 | 
21 | Cc1ccc(N2CCN(C(=O)c3cc(Cc4n[nH]c(=O)c5ccccc45)cc(F)c3F)CC2)cc1 | < 0.1 | 405 | 2080 | > 10000 | 

The next lines start with results.

Row | IC50 [3] [nM] | IC50 (MDA-MB-436) [nM] | Compound | IC50 [4] [nM] | IC50 (V79) [nM] | also measured
22 | 5.1 |  | N#Cc1cccc(N2CCN(C(=O)c3cc(Cc4n[nH]c(=O)c5ccccc45)cc(F)c3F)CC2)n1 |  |  | 
23 | 5.4 |  | N#Cc1ccc(N2CCN(C(=O)c3cc(Cc4n[nH]c(=O)c5ccccc45)cc(F)c3F)CC2)cc1 |  |  | 
24 | 157 |  | O=C(c1cc(Cc2n[nH]c(=O)c3ccccc23)cc(F)c1F)N1CCN(Cc2cccnc2)CC1 |  |  | 
25 | 11.2 |  | O=C(c1cc(Cc2n[nH]c(=O)c3ccccc23)cc(F)c1F)N1CCN(C(=O)C2CC2)CC1 |  |  | 
26 | 0.8 | 6 | O=C(c1cc(Cc2n[nH]c(=O)c3ccccc23)cc(F)c1F)N1CCN(C2CCCCCC2)CC1 | 42.6 | > 10000 | 
27 | 4.2 | 396 | O=C(c1cc(Cc2n[nH]c(=O)c3ccccc23)cc(F)c1F)N1CCN(c2cccc(Cl)c2)CC1 | 1600 | 7880 | 
28 | 1.4 | 12.9 | CCN1CCN(C(=O)c2cc(Cc3n[nH]c(=O)c4ccccc34)cc(F)c2F)CC1 | 987 | > 10000 | 
29 | 0.4 | 9.4 | O=C(c1cc(Cc2n[nH]c(=O)c3ccccc23)cc(F)c1F)N1CCN(c2ccc([N+](=O)[O-])cc2)CC1 | 206 | > 10000 | 
30 | 0.8 | 23.4 | O=C(c1cc(Cc2n[nH]c(=O)c3ccccc23)cc(F)c1F)N1CCN(c2cccc(C(F)(F)F)c2)CC1 | 624 | > 10000 | 
31 | 0.6 | 27.1 | O=C(c1cc(Cc2n[nH]c(=O)c3ccccc23)cc(F)c1F)N1CCN(c2ccc(O)cc2)CC1 | 3970 | > 10000 | 
32 | 0.5 | 82.4 | O=C(c1cc(Cc2n[nH]c(=O)c3ccccc23)cc(F)c1F)N1CCN(c2ccccc2)CC1 | 1940 | 6030 | 
33 | 0.9 | 0.3 | O=C(c1cc(Cc2n[nH]c(=O)c3ccccc23)cc(F)c1F)N1CCN(c2ccccc2O)CC1 | 31.7 | 7830 | 
34 | 55.8 |  | O=C(c1cc(Cc2n[nH]c(=O)c3ccccc23)cc(F)c1F)N1CCN(c2ccccc2F)CC1 |  |  | 
35 | 2.6 | 10.6 | O=C(c1cc(Cc2n[nH]c(=O)c3ccccc23)cc(F)c1F)N1CCN(C2CCCC2)CC1 | 284 | > 10000 | 
36 | 52.2 |  | O=C(c1cc(Cc2n[nH]c(=O)c3ccccc23)cc(F)c1F)N1CCN(c2nsc3ccccc23)CC1 |  |  | 
37 | 2.4 | 4.9 | O=C(c1cc(Cc2n[nH]c(=O)c3ccccc23)cc(F)c1F)N1CCN(C(=O)C2CCCO2)CC1 (stereo not drawn) | 68.1 | > 10000 | 
38 | 324 |  | Cc1ccc(Cl)cc1N1CCN(C(=O)c2cc(Cc3n[nH]c(=O)c4ccccc34)cc(F)c2F)CC1 |  |  | 
39 | 9.7 |  | O=C(c1cc(Cc2n[nH]c(=O)c3ccccc23)cc(F)c1F)N1CCN(CC2CC2)CC1 |  |  | 
40 | 7.1 |  | CC(=O)N1CCN(C(=O)c2cc(Cc3n[nH]c(=O)c4ccccc34)cc(F)c2F)CC1 |  |  | 
41 | 29.1 |  | Cc1ccc(C(=O)N2CCN(C(=O)c3cc(Cc4n[nH]c(=O)c5ccccc45)cc(F)c3F)CC2)cc1 |  |  | 
